Experimental data: patent US5814612A, “Retinol derivatives and uses thereof” (priority 1992, dated 1998)
Entries after “also recorded” stand apart in the source; their conditions may differ. Where two headings read alike, the source gives them in different places.

What was measured:
thymocytes = test: Proliferation of anti-CD3 activated thymocytes in serum-free ITLB medium; assay type: cell-based, BALB/c mouse; settings: for effectiveness relative to retinol: anti-CD3, 14HRR at 12 hour intervals; for proliferative response of anti-CD3e activated thymocytes / growth kinetics over four days: retinol 3×10^-6 M, 14HRR 6×10^-7 M, human serum 3%; for growth kinetics over four days: 10^5 cells/well
Experimental: FIG. 14A: Purified BALB/c thymocytes were activated with immobilized anti-CD3e antibody and cultivated for four days in ITLB medium with or without retinol (3×10^-6 M), 14HRR (6×10^-7 M) (fresh 14HRR was added every 12 hours), human serum (3%) or FCS (10%) at the cellular densities shown. Proliferation was assayed by tritiated thymidine incorporation into cellular DNA.
FIG. 14B: BALB/c thymocytes (10^6 /ml) were added to microtiter plates coated with titrated amounts of anti-CD3e antibody with […] retinol or without, as indicated. Proliferation was measured in hexaduplicate wells on day 3 by ^3 H thymidine incorporation assay.
Purified thymocytes (5×10^5 cells/well) were stimulated by TCR crosslinking with immobilized anti-CD3e antibody (FIG. 15A) or 0.4 μg/ml Con A (FIG. 15B) in serum-free ITLB medium. The indicated amounts of retinoids were added either once at the beginning of the experiment (marked as "1×") or every 12 hours thereafter (marked as "6×"). DNA synthesis was measured after 72 hours by tritiated thymidine uptake as described.
Purified thymocytes (10^5 cells/well) were activated with anti-CD3 antibody in ITLB medium with or without retinol (3×10^-6 M), 14HRR (6×10^-7, added every 12 hours or human serum (3%)). DNA synthesis was measured daily by a 4 hour pulse of tritiated thymidine.
Thymocytes (5×10^4 /well) were activated by immobilized anti-CD3 mAb in medium ITLB. Retinol (2×10^-6 M) was added at initiation of culture, or delayed by 12 hours and 24 hours, respectively, or omitted altogether. ^3 H thymidine pulses of 4 hours were used to measure DNA synthesis of hexaduplicate wells.
Thymuses of 3 to 6-week-old BALB/c mice were teased in serum-free RPMI medium supplemented with 1% BSA, 10^-6 M linoleic acid and antibiotics. Depletion of accessory cells was achieved by two cycles of complement-dependent lysis with a mixture of anti-IA^d (5 μg/ml) and anti-IE^d (1:500 diluted ascites fluid). Briefly, cells were incubated on ice for 30 minutes with Ia antibodies, spun down, resuspended in 1:40 diluted rabbit complement, and incubated at 37° C. for 45 minutes. Incubations and two subsequent washes were carried out with RPMI medium containing 1% BSA. Cell viability was evaluated by trypan blue dye exclusion. To determine the extent of depletion of accessory cells, samples were stained with FITC-conjugated anti-Fc receptor antibody and analyzed by flow cytometry on a FACScan instrument (Becton Dickinson).
Cells were cultured in serum-free medium, referred to as ITLB, containing RPMI 1640 supplemented with 8×10^-7 M insulin (5 μg/ml), 7×10^-8 M transferrin (5 μg/ml), 2×10^-6 M linoleic acid, 2×10^-6 M delipidated BSA (0.12 mg/ml), 2 mM L-glutamine, 1 mM sodium pyruvate and antibiotics. They were seeded into 96-well flat-bottom plates at varying cellular densities in a final volume of 100 μl. In control experiments, cells were cultured in medium containing 10% FCS or 3% human serum and 5×10^-5 M 2ME. T cells and thymocytes were activated with immobilized, purified anti-mAb CD3e or by the addition of Con A in the presence or absence of different concentrations of retinoids. Unless indicated otherwise, retinoids were replenished every 12 hours to maintain a reasonably constant concentration of these labile compounds in culture. […] Cultures were carried out in duplicate. Plates were incubated at 37° C. in a humidified 5% CO2 atmosphere. Cellular proliferation was determined by [^3 H] thymidine uptake (0.5 uCi/well; New England Nuclear, Boston, Mass.) after the incubation times indicated for each experiment with a 4 hour labeling pulse.

T cells = test: T cell activation and proliferation, retinol cofactor requirement; assay type: cell-based, murine
Experimental: They were seeded into 96-well flat-bottom plates at varying cellular densities in a final volume of 100 μl. In control experiments, cells were cultured in medium containing 10% FCS or 3% human serum and 5×10^-5 M 2ME. […] Cultures were carried out in duplicate. Plates were incubated at 37° C. in a humidified 5% CO2 atmosphere. Cellular proliferation was determined by [^3 H] thymidine uptake (0.5 uCi/well; New England Nuclear, Boston, Mass.) after the incubation times indicated for each experiment with a 4 hour labeling pulse. Cells were harvested onto glass filter and [^3 H]TdR incorporation was determined by liquid scintillation counting. The data presented are the means of duplicate or six replicate cultures. The restriction to duplicate measurements was necessary to conserve scarce 14HRR. […] Each experiment was repeated at least twice.

5/2 cells = test: Growth-supporting activity on 5/2 cells in serum-free ITLB medium; assay type: cell-based, human
Experimental: The assay was done in 96-well microtiter plates in a final volume of 200 ul/well. The cells were cultured for 72 hours and cell growth determined by [^3 H] thymidine (0.8 μCi/well)labeling for the last 16 hours. Retinoids were added at the indicated concentrations at the initiation of culture and every 24 hours thereafter.
5/2 cells were grown in the absence of retinol in a medium containing the basic RPMI 1640 amino acid/salt mixture, insulin (5 μg/ml), transferrin (5 μg/ml), albumin (0.1%) and linoleic acid (10^-6 M) (ITLB). […] The dose-response curve shown in FIG. 26 indicates an effective concentration of 10^-7 M.

[1] = system: lymphoblastoid cells (LCL); settings: cited from earlier work

Structure (SMILES) | effectiveness relative to retinol (thymocytes) | dose optimum (thymocytes; provided at 12 hour intervals) [nM] | proliferative response of anti-CD3e activated thymocytes (thymocytes) | growth kinetics over four days (thymocytes) | effect of a single addition at start of culture (thymocytes; single addition) | ability to substitute for retinol in T cell activation (words) (T cells) | restoration of proliferation in absence of retinol (5/2 cells) | ability to substitute for retinol in T cell activation (words) (T cells; listed as retinoic acid) | support of growth of LCL in serum-free medium [1] | reduction of sufficient retinol concentration with repeated feeding (thymocytes; replenished twice daily, 3-day culture) | T cell activation in FCS-containing medium (T cells; FCS-containing medium, absence of APC)
CC(C=CC=C(C)C(O)CO)=CC=C1C(C)=CCCC1(C)C (stereo not shown) [14HRR, 14-hydroxy-4,14-retro-retinol] | as potent as retinol | 500 | vigorous responses were elicited | exponential growth | ineffective; also recorded: does not enable sustained proliferation; also recorded: insufficient to drive T cell proliferation | effectively supports T cell activation in conjunction with a mitogen in lieu of retinol; also recorded: capable of supporting activation and sustaining proliferation of T cells; also recorded: capable of supporting T cell activation and proliferation in the absence of any extraneous source of retinal | restores the capacity to proliferate |  |  |  | 
CC1=C(/C=C/C(C)=C/C=C/C(C)=C/C(=O)O)C(C)(C)CCC1 [all-trans retinoic acid] | completely inactive |  |  |  |  |  |  | cannot be satisfied by retinoic acid; also recorded: T lymphocytes neither respond to externally provided retinoic acid | but not retinoic acid, support the growth of LCL in serum-free medium |  | 
CC1=C(/C=C/C(C)=C/C=C/C(C)=C/CO)C(C)(C)CCC1 [retinol, all-trans retinol] |  |  | vigorous responses were elicited | exponential growth |  |  | restores the capacity to proliferate |  | support the growth of LCL in serum-free medium | five- to ten-fold lower | no activation in the absence of APC, whether or not additional retinol is supplied
